# Results published in PubChem BioAssay (NCI).
#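 Following 48 hours of exposure in 96-well plates, responses at five concentrations were used to interpolate endpoints linearly. TGI: concentration producing complete growth inhibition.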
# Legend:
# Assay in all cases: NCI tumour cell line growth inhibition, 48 h
# DMS 273 small cell lung = tested on: DMS 273 small cell lung
# DMS 114 small cell lung = tested on: DMS 114 small cell lung
# OVCAR-5 ovarian = tested on: OVCAR-5 ovarian
# SK-MEL-5 melanoma = tested on: SK-MEL-5 melanoma
# SK-MEL-28 melanoma = tested on: SK-MEL-28 melanoma
# MDA-MB-231 breast = tested on: MDA-MB-231 breast
# NCI-H23 lung = tested on: NCI-H23 lung
# SN12K1 renal = tested on: SN12K1 renal
# KM12 colon = tested on: KM12 colon
# T-47D breast = tested on: T-47D breast
# LOX IMVI melanoma = tested on: LOX IMVI melanoma
# UACC-257 melanoma = tested on: UACC-257 melanoma
# COLO 205 colon = tested on: COLO 205 colon
# SNB-19 CNS = tested on: SNB-19 CNS
# UACC-62 melanoma = tested on: UACC-62 melanoma
# M14 melanoma = tested on: M14 melanoma
# SK-MEL-2 melanoma = tested on: SK-MEL-2 melanoma
# A498 renal = tested on: A498 renal
# OVCAR-8 ovarian = tested on: OVCAR-8 ovarian
# XF 498 CNS = tested on: XF 498 CNS
# DU-145 prostate = tested on: DU-145 prostate
# SNB-78 CNS = tested on: SNB-78 CNS
# MOLT-4 leukemia = tested on: MOLT-4 leukemia
# SK-OV-3 ovarian = tested on: SK-OV-3 ovarian
# HCT-15 colon = tested on: HCT-15 colon
# SN12C renal = tested on: SN12C renal
# DLD-1 colon = tested on: DLD-1 colon
# CAKI-1 renal = tested on: CAKI-1 renal
# NCI/ADR-RES ovarian = tested on: NCI/ADR-RES ovarian
# HCT-116 colon = tested on: HCT-116 colon
# MCF7 breast = tested on: MCF7 breast
# HOP-92 NSCLC = tested on: HOP-92 NSCLC
# UO-31 renal = tested on: UO-31 renal
# A549 NSCLC = tested on: A549 NSCLC
# OVCAR-3 ovarian = tested on: OVCAR-3 ovarian
# NCI-H522 lung = tested on: NCI-H522 lung
# MDA-N = tested on: MDA-N
# HCC-2998 colon = tested on: HCC-2998 colon
# KM20L2 colon = tested on: KM20L2 colon
# HT29 colon = tested on: HT29 colon
# ACHN renal = tested on: ACHN renal
# M19-MEL melanoma = tested on: M19-MEL melanoma
# EKVX NSCLC = tested on: EKVX NSCLC
# PC-3 prostate = tested on: PC-3 prostate
# SNB-75 CNS = tested on: SNB-75 CNS
# K-562 leukemia = tested on: K-562 leukemia
# MDA-MB-435 = tested on: MDA-MB-435
# SR leukemia = tested on: SR leukemia
# 786-0 renal = tested on: 786-0 renal
# U251 CNS = tested on: U251 CNS
# NCI-H226 lung = tested on: NCI-H226 lung
# OVCAR-4 ovarian = tested on: OVCAR-4 ovarian
# RPMI-8226 leukemia = tested on: RPMI-8226 leukemia
# RXF 393 renal = tested on: RXF 393 renal
# CCRF-CEM leukemia = tested on: CCRF-CEM leukemia
# TK-10 renal = tested on: TK-10 renal
# BT-549 breast = tested on: BT-549 breast
# P388/ADR leukemia = tested on: P388/ADR leukemia
# SF-539 CNS = tested on: SF-539 CNS
# MALME-3M melanoma = tested on: MALME-3M melanoma
# SW-620 colon = tested on: SW-620 colon
# SF-295 CNS = tested on: SF-295 CNS
# IGROV1 ovarian = tested on: IGROV1 ovarian
# HS 578T breast = tested on: HS 578T breast
# HOP-62 NSCLC = tested on: HOP-62 NSCLC
# SF-268 CNS = tested on: SF-268 CNS
# NCI-H460 lung = tested on: NCI-H460 lung
# HOP-18 NSCLC = tested on: HOP-18 NSCLC
# HL-60(TB) leukemia = tested on: HL-60(TB) leukemia
# RXF-631 renal = tested on: RXF-631 renal
# LXFL 529 NSCLC = tested on: LXFL 529 NSCLC
smiles,measurement,setting,value
O=C1C(Br)=CC2(C=C1Br)CCNc1c(O)c3c4c(c12)=NCCC=4C=N3,TGI,DMS 273 small cell lung,0.427 µM
same,TGI,DMS 114 small cell lung,0.101 µM
same,TGI,OVCAR-5 ovarian,1.28 µM
same,TGI,SK-MEL-5 melanoma,0.266 µM
same,TGI,SK-MEL-28 melanoma,0.416 µM
same,TGI,MDA-MB-231 breast,0.409 µM
same,TGI,NCI-H23 lung,0.287 µM
same,TGI,SN12K1 renal,0.426 µM
same,TGI,KM12 colon,1.61 µM
same,TGI,T-47D breast,0.165 µM
same,TGI,LOX IMVI melanoma,0.254 µM
same,TGI,UACC-257 melanoma,0.25 µM
same,TGI,COLO 205 colon,0.0289 µM
same,TGI,SNB-19 CNS,3.97 µM
same,TGI,UACC-62 melanoma,0.233 µM
same,TGI,M14 melanoma,0.212 µM
same,TGI,SK-MEL-2 melanoma,0.428 µM
same,TGI,A498 renal,3.56 µM
same,TGI,OVCAR-8 ovarian,0.511 µM
same,TGI,XF 498 CNS,0.399 µM
same,TGI,DU-145 prostate,1.49 µM
same,TGI,SNB-78 CNS,0.656 µM
same,TGI,MOLT-4 leukemia,0.11 µM
same,TGI,SK-OV-3 ovarian,4.26 µM
same,TGI,HCT-15 colon,0.197 µM
same,TGI,SN12C renal,0.344 µM
same,TGI,DLD-1 colon,0.0798 µM
same,TGI,CAKI-1 renal,0.309 µM
same,TGI,NCI/ADR-RES ovarian,0.58 µM
same,TGI,HCT-116 colon,0.116 µM
same,TGI,MCF7 breast,0.0745 µM
same,TGI,HOP-92 NSCLC,0.185 µM
same,TGI,UO-31 renal,0.685 µM
same,TGI,A549 NSCLC,3.09 µM
same,TGI,OVCAR-3 ovarian,0.0835 µM
same,TGI,NCI-H522 lung,0.0542 µM
same,TGI,MDA-N,0.245 µM
same,TGI,HCC-2998 colon,1.21 µM
same,TGI,KM20L2 colon,0.413 µM
same,TGI,HT29 colon,0.168 µM
same,TGI,ACHN renal,0.307 µM
same,TGI,M19-MEL melanoma,0.0656 µM
same,TGI,EKVX NSCLC,0.521 µM
same,TGI,PC-3 prostate,0.993 µM
same,TGI,SNB-75 CNS,2.16 µM
same,TGI,K-562 leukemia,0.0921 µM
same,TGI,MDA-MB-435,0.245 µM
same,TGI,SR leukemia,0.117 µM
same,TGI,786-0 renal,0.272 µM
same,TGI,U251 CNS,1.07 µM
same,TGI,NCI-H226 lung,2.74 µM
same,TGI,OVCAR-4 ovarian,0.211 µM
same,TGI,RPMI-8226 leukemia,0.212 µM
same,TGI,RXF 393 renal,0.217 µM
same,TGI,CCRF-CEM leukemia,0.0734 µM
same,TGI,TK-10 renal,0.792 µM
same,TGI,BT-549 breast,0.507 µM
same,TGI,P388/ADR leukemia,0.0155 µM
same,TGI,SF-539 CNS,0.557 µM
same,TGI,MALME-3M melanoma,0.0946 µM
same,TGI,SW-620 colon,0.105 µM
same,TGI,SF-295 CNS,2.56 µM
same,TGI,IGROV1 ovarian,0.42 µM
same,TGI,HS 578T breast,3.87 µM
same,TGI,HOP-62 NSCLC,5.34 µM
same,TGI,SF-268 CNS,1.18 µM
same,TGI,NCI-H460 lung,1.64 µM
same,TGI,HOP-18 NSCLC,3.4 µM
NC(=O)c1cc([N+](=O)[O-])cc([N+](=O)[O-])c1,TGI,DMS 273 small cell lung,> 100 µM
same,TGI,DMS 114 small cell lung,> 100 µM
same,TGI,OVCAR-5 ovarian,> 100 µM
same,TGI,SK-MEL-5 melanoma,> 100 µM
same,TGI,SK-MEL-28 melanoma,> 100 µM
same,TGI,NCI-H23 lung,> 100 µM
same,TGI,KM12 colon,> 100 µM
same,TGI,LOX IMVI melanoma,> 100 µM
same,TGI,UACC-257 melanoma,> 100 µM
same,TGI,COLO 205 colon,> 100 µM
same,TGI,SNB-19 CNS,> 100 µM
same,TGI,UACC-62 melanoma,> 100 µM
same,TGI,M14 melanoma,> 100 µM
same,TGI,SK-MEL-2 melanoma,> 100 µM
same,TGI,A498 renal,> 100 µM
same,TGI,OVCAR-8 ovarian,> 100 µM
same,TGI,MOLT-4 leukemia,> 100 µM
same,TGI,HL-60(TB) leukemia,> 100 µM
same,TGI,SK-OV-3 ovarian,> 100 µM
same,TGI,HCT-15 colon,> 100 µM
same,TGI,RXF-631 renal,> 100 µM
same,TGI,SN12C renal,> 100 µM
same,TGI,DLD-1 colon,> 100 µM
same,TGI,CAKI-1 renal,> 100 µM
same,TGI,HCT-116 colon,> 100 µM
same,TGI,HOP-92 NSCLC,> 100 µM
same,TGI,UO-31 renal,> 100 µM
same,TGI,A549 NSCLC,> 100 µM
same,TGI,OVCAR-3 ovarian,> 100 µM
same,TGI,NCI-H522 lung,> 100 µM
same,TGI,LXFL 529 NSCLC,> 100 µM
same,TGI,KM20L2 colon,> 100 µM
same,TGI,HT29 colon,> 100 µM
same,TGI,ACHN renal,> 100 µM
same,TGI,M19-MEL melanoma,46.8 µM
same,TGI,EKVX NSCLC,> 100 µM
same,TGI,SNB-75 CNS,> 100 µM
same,TGI,K-562 leukemia,> 100 µM
same,TGI,SR leukemia,> 100 µM
same,TGI,786-0 renal,> 100 µM
same,TGI,U251 CNS,> 100 µM
same,TGI,NCI-H226 lung,> 100 µM
same,TGI,OVCAR-4 ovarian,> 100 µM
same,TGI,RPMI-8226 leukemia,> 100 µM
same,TGI,RXF 393 renal,> 100 µM
same,TGI,CCRF-CEM leukemia,> 100 µM
same,TGI,TK-10 renal,> 100 µM
same,TGI,SF-539 CNS,> 100 µM
same,TGI,MALME-3M melanoma,> 100 µM
same,TGI,SW-620 colon,> 100 µM
same,TGI,SF-295 CNS,> 100 µM
same,TGI,IGROV1 ovarian,> 100 µM
same,TGI,HOP-62 NSCLC,> 100 µM
same,TGI,SF-268 CNS,> 100 µM
same,TGI,NCI-H460 lung,> 100 µM
CCOC(=O)C1=C(c2ccccc2)N(C(C)=O)Cc2ccccc21,TGI,DMS 273 small cell lung,29.8 µM
same,TGI,DMS 114 small cell lung,25.9 µM
same,TGI,OVCAR-5 ovarian,> 100 µM
same,TGI,SK-MEL-5 melanoma,25.1 µM
same,TGI,SK-MEL-28 melanoma,36.6 µM
same,TGI,NCI-H23 lung,34.5 µM
same,TGI,KM12 colon,30.3 µM
same,TGI,LOX IMVI melanoma,33.2 µM
same,TGI,UACC-257 melanoma,34.6 µM
same,TGI,COLO 205 colon,32 µM
same,TGI,SNB-19 CNS,> 100 µM
same,TGI,UACC-62 melanoma,25.5 µM
same,TGI,M14 melanoma,35 µM
same,TGI,SK-MEL-2 melanoma,38.2 µM
same,TGI,OVCAR-8 ovarian,> 100 µM
same,TGI,XF 498 CNS,25 µM
same,TGI,MOLT-4 leukemia,34.8 µM
same,TGI,HL-60(TB) leukemia,37.5 µM
same,TGI,SK-OV-3 ovarian,> 100 µM
same,TGI,HCT-15 colon,> 100 µM
same,TGI,SN12C renal,77.1 µM
same,TGI,DLD-1 colon,> 100 µM
same,TGI,HCT-116 colon,30.2 µM
same,TGI,HOP-92 NSCLC,20.7 µM
same,TGI,UO-31 renal,> 100 µM
same,TGI,A549 NSCLC,93.8 µM
same,TGI,OVCAR-3 ovarian,43.2 µM
same,TGI,NCI-H522 lung,51.7 µM
same,TGI,LXFL 529 NSCLC,> 100 µM
same,TGI,HCC-2998 colon,> 100 µM
same,TGI,KM20L2 colon,53.7 µM
same,TGI,HT29 colon,33.8 µM
same,TGI,ACHN renal,66.7 µM
same,TGI,M19-MEL melanoma,39.3 µM
same,TGI,EKVX NSCLC,> 100 µM
same,TGI,SNB-75 CNS,77.1 µM
same,TGI,K-562 leukemia,> 100 µM
same,TGI,SR leukemia,41.7 µM
same,TGI,786-0 renal,> 100 µM
same,TGI,U251 CNS,36.8 µM
same,TGI,NCI-H226 lung,50.5 µM
same,TGI,OVCAR-4 ovarian,> 100 µM
same,TGI,RPMI-8226 leukemia,38.7 µM
same,TGI,RXF 393 renal,68.2 µM
same,TGI,CCRF-CEM leukemia,78.7 µM
same,TGI,TK-10 renal,> 100 µM
same,TGI,SF-539 CNS,30.9 µM
same,TGI,MALME-3M melanoma,46.7 µM
same,TGI,SW-620 colon,> 100 µM
same,TGI,SF-295 CNS,37.8 µM
same,TGI,IGROV1 ovarian,> 100 µM
same,TGI,HOP-62 NSCLC,44.3 µM
same,TGI,SF-268 CNS,64.8 µM
same,TGI,NCI-H460 lung,41.3 µM
same,TGI,HOP-18 NSCLC,99.4 µM
